Source: US10752587B2, “Homobispiperidinyl derivatives as liver X receptor beta agonists, compositions and their use” (Merck Sharp & Dohme Corp., priority 2015, dated 2020)

Assays:
[1] = target: T1, glutathione-S-transferase (GST) tagged LXRbeta LBD (ligand binding domain) (Homo sapiens, UniProt P55055); assay: LanthaScreen TR-FRET Liver X Receptor Coactivator Assay, co-activator recruitment to LXRbeta LBD; type: biochemical; conditions: for Emax: read-out: LXR beta Activity @ max dose (%); for EC50: potency (Inflection Point, IP), co-activator recruitment to LXRbeta LBD, in relation to T0901317, read-out: LXR beta IP
T1 construct: purchased Invitrogen pv4658.pps
T1 sequence (P55055 222-460 limits assumed): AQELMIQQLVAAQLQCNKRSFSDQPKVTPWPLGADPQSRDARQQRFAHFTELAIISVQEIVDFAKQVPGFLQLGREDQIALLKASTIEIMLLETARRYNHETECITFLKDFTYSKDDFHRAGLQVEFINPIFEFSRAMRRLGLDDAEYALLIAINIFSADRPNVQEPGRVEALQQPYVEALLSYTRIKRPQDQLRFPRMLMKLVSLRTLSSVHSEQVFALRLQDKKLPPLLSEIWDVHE
Method in brief: (§1)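 Efficacy (Emax) and inflection-point potency were scaled to reference agonist T0901317, acting on both LXR subtypes. Ligand-driven coactivator peptide recruitment was detected by TR-FRET after room-temperature incubation with terbium anti-GST antibody.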

[2] = target: T2, glutathione-S-transferase (GST) tagged LXRalpha LBD (ligand binding domain) (Homo sapiens, UniProt Q13133); assay: LanthaScreen TR-FRET Liver X Receptor Coactivator Assay, co-activator recruitment to LXRalpha LBD; type: biochemical; conditions: for Emax: read-out: LXR alpha Activity @ max dose (%); for EC50 / LXR alpha IP (nM): potency (Inflection Point, IP), co-activator recruitment to LXRalpha LBD, in relation to T0901317; for EC50: read-out: LXR alpha IP
T2 construct: purchased Invitrogen pv4655
T2 sequence (Q13133 209-447 limits assumed): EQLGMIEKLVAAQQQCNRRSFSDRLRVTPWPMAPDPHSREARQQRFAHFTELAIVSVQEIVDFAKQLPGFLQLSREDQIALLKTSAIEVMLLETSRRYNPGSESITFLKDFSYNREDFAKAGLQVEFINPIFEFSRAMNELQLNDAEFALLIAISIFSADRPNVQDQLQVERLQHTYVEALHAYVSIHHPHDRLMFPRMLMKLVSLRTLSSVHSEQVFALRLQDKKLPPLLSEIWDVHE
Method in brief: as §1

[3] = efficacy at max dose, in relation to reference dual agonist T0901317

Emax [1, 3] | EC50 [1] | Emax [2, 3] | EC50 [2] | LXR alpha IP (nM) [2] | LXR beta Activity @ max dose (%) [1, 3] | LXR alpha Activity @ max dose (%) [2, 3] | Compound
100% | 25 nM | 29% | 890 nM | – | – | – | COc1cccc([C@@](O)(C(=O)N2CCC(OC3CCN(c4ccc(C(=O)N(C)C)c(Cl)n4)CC3)CC2)C(F)(F)F)c1 [Example 7-153, 2-chloro-N,N-dimethyl-6-[4-({1-[(2R)-3,3,3-trifluoro-2-hydroxy-2-(3-methoxyphenyl)propanoyl]piperidin-4-yl}oxy)piperidin-1-yl]pyridine-3-carboxamide]
55% | 72 nM | 19% | 1420 nM | – | – | – | CCC(O)(C(=O)N1CCC(CC2CCN(c3ccc(C(=O)N(C)C)c(Cl)c3)CC2)CC1)c1ccccc1 (stereo not drawn) [Example 2-32, 2-chloro-4-(4-{[1-(2-hydroxy-2-phenyl-butanoyl)piperidin-4-yl]methyl}piperidin-1-yl)-N,N-dimethyl-benzamide]
66% | 26 nM | 2% | – | NO IP | – | – | CC(C)Oc1cccc([C@@](O)(C(=O)N2CC(CC3CCN(c4ccc(C(=O)N(C)C)c(Cl)c4)CC3)C2)C(F)(F)F)c1 [Example 2-60, 2-chloro-N,N-dimethyl-4-{4-[(1-{(2R)-3,3,3-trifluoro-2-hydroxy-2-[3-(1-methyl-ethoxy)phenyl]propanoyl}azetidin-3-yl)methyl]piperidin-1-yl}benzamide]
19% | 27 nM | 0% | – | NO IP | – | – | CN(C)C(=O)c1ccc(N2CCC(CC3CCN(C(=O)C(O)(c4cccc5c4CCC5)C(F)(F)F)CC3)CC2)cc1Cl (stereo not drawn) [Example 2-170, 2-chloro-4-[4-({1-[2-(2,3-dihydro-1H-inden-4-yl)-3,3,3-trifluoro-2-hydroxy-propanoyl]piperidin-4-yl}methyl)piperidin-1-yl]-N,N-dimethyl-benzamide]
112% | 1110 nM | 16% | – | NO IP | – | – | CN(C)C(=O)c1ccc(N2CCC(CC3CN(C(=O)C(N)(c4ccccc4)C(F)(F)F)C3)CC2)cc1Cl (stereo not drawn) [Example 2-69, 4-(4-{[1-(2-amino-3,3,3-trifluoro-2-phenyl-propanoyl)azetidin-3-yl]methyl}piperidin-1-yl)-2-chloro-N,N-dimethyl-benzamide]
80% | 19 nM | 35% | 895 nM | – | – | – | Cc1nc(N2CCC(CC3CCN(C(=O)[C@](O)(c4ccccc4)C(F)(F)F)CC3)CC2)ccc1C(=O)N(C)C [Example 7-1, (R)—N,N,2-trimethyl-6-(4-((1-(3,3,3-trifluoro-2-hydroxy-2-phenylpropanoyl)piperidin-4-yl)methyl)piperidin-1-yl)nicotinamide]
– | – | – | – | NO IP | 65% | 0% | CN(C)C(=O)c1ccc(N2CCC(OC3CCN(C(=O)[C@](O)(c4ccccc4)C(F)(F)F)CC3)CC2)cc1Cl [Example 2-21, 2-chloro-N,N-dimethyl-4-[4-({1-[(2R)-3,3,3-trifluoro-2-hydroxy-2-phenylpropanoyl]piperidin-4-yl}oxy)piperidin-1-yl]benzamide]
125% | 22 nM | 29% | 1010 nM | – | – | – | CN(C)C(=O)c1ccc(N2CCC(CC3CCN(C(=O)[C@](N)(c4cc(Cl)cc(Cl)c4)C(F)(F)F)CC3)CC2)cc1Cl [Example 2-117, 4-[4-({1-[(2R)-2-amino-2-(3,5-dichloro-phenyl)-3,3,3-trifluoro-propanoyl]piperidin-4-yl}methyl)piperidin-1-yl]-2-chloro-N,N-dimethyl-benzamide]
10% | 33 nM | 0% | – | NO IP | – | – | CCOc1cccc([C@@](O)(C(=O)N2CCC(CC3CCN(c4ccc(C(=O)N(C)C)c(Cl)c4)CC3)CC2)C(F)F)c1 [Example 2-108, 2-chloro-4-[4-({1-[(2R)-2-(3-ethoxy-phenyl)-3,3-difluoro-2-hydroxy-propanoyl]piperidin-4-yl}methyl)piperidin-1-yl]-N,N-dimethyl-benzamide]
56% | 23 nM | 15% | – | NO IP | – | – | Cc1cc(N2CCC(CC3CCN(C(=O)[C@](O)(c4cccc(OC(F)(F)F)c4)C(F)(F)F)CC3)CC2)ccc1C(=O)N(C)C [Example 2-150, N,N,2-trimethyl-4-{4-[(1-{(2R)-3,3,3-trifluoro-2-hydroxy-2-[3-(trifluoromethoxy)phenyl]propanoyl}piperidin-4-yl)methyl]piperidin-1-yl}benzamide]
19% | 10 nM | 0% | – | NO IP | – | – | COc1cccc([C@@](O)(C(=O)N2CCC(CC3CCN(c4ccc(C(=O)N(C)C)c(Cl)c4)CC3)CC2)C(F)F)c1 [Example 2-106, 2-chloro-4-[4-({1-[(2R)-3,3-difluoro-2-hydroxy-2-(3-methoxy-phenyl)propanoyl]piperidin-4-yl}methyl)piperidin-1-yl]-N,N-dimethyl-benzamide]
95% | 48 nM | 29% | 658 nM | – | – | – | CN(C)C(=O)c1ccc(N2CCC(CC3CCN(C(=O)C4(c5ccccc5F)CCCC4)CC3)CC2)nc1Cl [Example 7-65, 2-chloro-6-{4-[(1-{[1-(2-fluorophenyl)cyclopentyl]carbonyl}piperidin-4-yl)methyl]piperidin-1-yl}-N,N-dimethylpyridine-3-carboxamide]
104% | 327 nM | 58% | 1310 nM | – | – | – | CNC(=O)c1ccc(N2CCC(CC3CCN(C(=O)C(O)(C(C)C)C(F)(F)F)CC3)CC2)nc1Cl (stereo not drawn) [Example 7-143, 2-chloro-6-[4-({1-[2-hydroxy-3-methyl-2-(trifluoromethyl)butanoyl]piperidin-4-yl}methyl)piperidin-1-yl]-N-methylpyridine-3-carboxamide]
78% | 30 nM | 15% | – | NO IP | – | – | COc1cc(F)cc([C@@](O)(C(=O)N2CCC(CC3CCN(c4ccc(C(=O)N(C)C)cc4)CC3)CC2)C(F)(F)F)c1 [Example 2-137, N,N-dimethyl-4-[4-({1-[(2R)-3,3,3-trifluoro-2-(3-fluoro-5-methoxyphenyl)-2-hydroxy-propanoyl]piperidin-4-yl}methyl)piperidin-1-yl]benzamide]
115% | 23 nM | 47% | 791 nM | – | – | – | CNC(=O)c1ccc(N2CCC(CC3CCN(C(=O)[C@](O)(c4ccccc4F)C(F)(F)F)CC3)CC2)nc1Cl [Example 7-145, 2-chloro-N-methyl-6-[4-({1-[(2R)-3,3,3-trifluoro-2-(2-fluorophenyl)-2-hydroxypropanoyl]piperidin-4-yl}methyl)piperidin-1-yl]pyridine-3-carboxamide]
100% | 4 nM | 63% | 51 nM | – | – | – | CNC(=O)c1ccc(N2CCC(CC3CCN(C(=O)[C@](O)(c4cccc(Cl)c4)C(F)(F)F)CC3)CC2)nc1Cl [Example 7-147, 2-chloro-6-[4-({1-[(2R)-2-(3-chlorophenyl)-3,3,3-trifluoro-2-hydroxypropanoyl]piperidin-4-yl}methyl)piperidin-1-yl]-N-methylpyridine-3-carboxamide]
